Reference: paper PMC12040169 (PLOS Biology, 2025)

Assay: in vitro
Settings: human, hela cells, % viability

## COc1ccc(C(=O)Nc2cc(C)nn2-c2nc3ccccc3s2)cc1 [CBK287841]
  viability at 28.5 h, 10 µM: 89.8%

## CCC(=O)N(Cc1cc2cc(C)ccc2nc1O)c1ccc(C)c(C)c1 [CBK265381]
  viability at 28.5 h, 10 µM: 107%

## Cc1ccc(OCCNC(=O)NC(=O)C2CCN(C)CC2)c2c1CCC2 [CBK034824]
  viability at 28.5 h, 10 µM: 115%

## COc1ccc2c(c1)nc1n2CCC1OC(C)=O (stereo not drawn) [CBK115379]
  viability at 28.5 h, 10 µM: 100%

## CCOC(=O)C(Cc1ccccc1)C(=O)Nc1ccc(Cl)cc1 (stereo not drawn) [CBK261463]
  viability at 28.5 h, 10 µM: 84.2%

## CCOC(=O)c1sc(-c2c(Cl)cc(C(F)(F)F)cc2Cl)nc1O [CBK078547]
  viability at 28.5 h, 10 µM: 114%

## CC(C)(C)c1cc(CCC(=O)NNC(=O)c2ccccc2Cl)cc(C(C)(C)C)c1O [CBK268391]
  viability at 28.5 h, 10 µM: 109%

## Cc1ccc(-c2ccc(CCC(=O)O)n2NC(=O)c2ccc([N+](=O)[O-])cc2)cc1 [CBK264776]
  viability at 28.5 h, 10 µM: 109%

## Cc1noc(C)c1S(=O)(=O)Nc1ccsc1C(=O)Nc1ccc(F)cc1 [CBK004604]
  viability at 28.5 h, 10 µM: 86.3%

## CCOc1ccc(-c2cncc(NC3CCC(O)CC3)n2)cc1 (stereo not drawn) [CBK065877]
  viability at 28.5 h, 10 µM: 88.9%

## Nc1c(C(F)(F)F)cc(Cl)nc1Cl [CBK005620]
  viability at 28.5 h, 10 µM: 95.7%

## COc1ccc(-n2c(SCC(=O)Nc3cccc(C(C)=O)c3)nc3sc(C)c(C)c3c2=O)cc1 [CBK091806]
  viability at 28.5 h, 10 µM: 97.6%

## O=C(NC(=S)CC1C=NCS1)c1ccccc1 (stereo not drawn) [CBK020794]
  viability at 28.5 h, 10 µM: 107%

## COc1ccc(Cn2nc3nnc(-c4ccc(F)cc4)c(-c4ccc(F)cc4)n3c2=O)cc1 [CBK286183]
  viability at 28.5 h, 10 µM: 107%

## COc1cccc(CC(=O)N2CCC(Cc3ccccc3-c3ccccc3)(C(N)=O)CC2)c1 [CBK285730]
  viability at 28.5 h, 10 µM: 96.7%

## c1coc(-c2nc3cnccn3c2NC2CCCC2)c1 [CBK283678]
  viability at 28.5 h, 10 µM: 90.6%

## CC1CCN(S(=O)(=O)c2ccc(NC(=O)CCn3c(=O)oc4ccccc43)cc2)CC1 [CBK268040]
  viability at 28.5 h, 10 µM: 97.1%

## CC(C)(C)c1cc(C(=O)NCCN)n(Cc2ccc(Cl)cc2Cl)n1 [CBK116631T]
  viability at 28.5 h, 10 µM: 95.1%

## Cc1cccc(Nc2nc3nonc3[nH]/c2=N\N=C/c2cn(Cc3ccc(Cl)cc3Cl)c3ccccc23)c1C [CBK262378]
  viability at 28.5 h, 10 µM: 93.3%

## COc1cc(C#N)ccc1Oc1ccc([N+](=O)[O-])cc1C(F)(F)F [CBK002544]
  viability at 28.5 h, 10 µM: 104%

## CC(C)[C@H](NC(=O)C1CC(=O)N(c2ccc(F)cc2)C1)C(=O)N1CCC(C(=O)O)CC1 (stereo partly drawn) [CBK286669]
  viability at 28.5 h, 10 µM: 94.8%

## Cn1c(C2CC2)nc2c1CCN(Cc1cc(=O)n(C)c(=O)n1C)C2 [CBK304025]
  viability at 28.5 h, 10 µM: 115%

## COc1ccccc1CC(C)NC(=O)c1cc(C2CC2)nn1C (stereo not drawn) [CBK283290]
  viability at 28.5 h, 10 µM: 83.8%

## COC(C)(C)C(=O)N1CCC2(C/C=C/Cc3ccccc3OCC(=O)NCCNC2=O)CC1 [CBK292001]
  viability at 28.5 h, 10 µM: 105%

## Nc1ccccc1Sc1ccccn1 [CBK085854]
  viability at 28.5 h, 10 µM: 103%

## CC(=O)Nc1nc2c3ccccc3n(C(C)=O)c2s1 [CBK011360]
  viability at 28.5 h, 10 µM: 110%

## O=C(c1ccccc1F)N1CCC(O)(c2ccc(F)cc2)CC1 [CBK281943]
  viability at 28.5 h, 10 µM: 80.9%

## Cc1ccc(O)c(NC(=O)c2ccccc2-c2ccccc2C(=O)O)c1 [CBK266763]
  viability at 28.5 h, 10 µM: 82.9%

## CSCCC(=O)N1CCN(C(=O)c2ccco2)CC1 [CBK144468]
  viability at 28.5 h, 10 µM: 93.5%

## Cc1ccc(C(=O)N/C(=C\c2cccc([N+](=O)[O-])c2)c2n[nH]c(=S)[nH]2)cc1 [CBK263114]
  viability at 28.5 h, 10 µM: 87%

## O=C(NCCCN1CCCCC1)C1CC(=O)N(Cc2ccco2)C1 (stereo not drawn) [CBK305145]
  viability at 28.5 h, 10 µM: 93.1%

## CC(C)C(=O)N1CCC(c2nc3ccccn3c2NC(C)(C)C)CC1 [CBK284745]
  viability at 28.5 h, 10 µM: 95%

## CCOC(=O)c1cn(CC)c2cc(N3CCN(C)CC3)c(F)cc2c1=O [CBK307141]
  viability at 28.5 h, 10 µM: 92.9%

## O=C(O)c1ccc(CNC2CC(=O)N(c3ccc(F)cc3)C2=O)cc1 (stereo not drawn) [CBK286727]
  viability at 28.5 h, 10 µM: 95.3%

## Cc1cc(C)n(CCC(=O)N2CCCCC2C(=O)O)n1 (stereo not drawn) [CBK304678]
  viability at 28.5 h, 10 µM: 103%

## O=C(Cc1ccccc1)N/N=C/C1CC2CC1CC2C(F)(F)F (stereo not drawn) [CBK021488]
  viability at 28.5 h, 10 µM: 93%

## COCCn1c(SC(C)C(=O)NC2CC2)nc2ccc(Br)cc2c1=O (stereo not drawn) [CBK305481]
  viability at 28.5 h, 10 µM: 108%

## Cc1ccc(-n2ncc3c(=O)n(Cc4ccccc4C)cnc32)c(C)c1 [CBK287695]
  viability at 28.5 h, 10 µM: 107%

## O=C(O)C1=CC(c2ccc(O)cc2)n2ncnc2N1 (stereo not drawn) [CBK286545]
  viability at 28.5 h, 10 µM: 88.7%

## O=C(Cc1cccc2ccccc12)Nc1cc(C(=O)O)cc(C(=O)O)c1 [CBK268475]
  viability at 28.5 h, 10 µM: 94.4%

## CC(=O)c1ccc(-c2cn3ccnc3c(N3CCN(C)CC3)n2)s1 [CBK037957]
  viability at 28.5 h, 10 µM: 94.4%

## COc1ccc(C(=O)N2CCC3(CCCN(CCN4C(=O)c5ccccc5C4=O)C3)C2)cc1OC (stereo not drawn) [CBK132862]
  viability at 28.5 h, 10 µM: 98.1%

## Cc1ccc(S(=O)(=O)NCCSc2nc(-c3ccc([N+](=O)[O-])cc3)c[nH]2)cc1 [CBK268518]
  viability at 28.5 h, 10 µM: 97%

## CCN(CC)C(=O)/C=C/c1ccc(C(C)C)cc1 [CBK149636]
  viability at 28.5 h, 10 µM: 93.1%

## Cc1cc(S(=O)(=O)N2CCCC2)ccc1OCC(=O)NCc1ccncc1 [CBK269886]
  viability at 28.5 h, 10 µM: 91.3%

## COc1ccc(-c2noc(-c3cnccn3)n2)c(OC)c1 [CBK287878]
  viability at 28.5 h, 10 µM: 83.6%

## Cc1ccc(Cl)cc1Nc1nc2nc(C)c(NCC3CC3)cn2n1 [CBK008522]
  viability at 28.5 h, 10 µM: 105%

## COc1ccc(CNC(=O)Cn2nc3c(SCc4ccc(Cl)cc4)nccn3c2=O)cc1 [CBK300541]
  viability at 28.5 h, 10 µM: 90.5%

## O=C(C1CCCN(c2nc3c(-c4ccccc4)csc3c(=O)[nH]2)C1)N1CCOCC1 (stereo not drawn) [CBK215582]
  viability at 28.5 h, 10 µM: 83.7%

## Cc1ccc(C)n1-c1ccc(O)c(C(=O)O)c1 [CBK116381]
  viability at 28.5 h, 10 µM: 94.2%

## OCCOc1ccnc2ccccc12 [CBK113395]
  viability at 28.5 h, 10 µM: 95.8%

## CCOC(=O)c1cnn(C)c1-c1ccc(F)cc1OC [CBK149233]
  viability at 28.5 h, 10 µM: 92.8%

## COc1ccc(NC(=O)CC(CN2CCN(c3ccc(Cl)cc3)CC2)C(=O)O)cc1 (stereo not drawn) [CBK286831]
  viability at 28.5 h, 10 µM: 101%

## Cc1ccc(Cn2nc(C(=O)NCC3COc4ccccc4O3)c3ccccc32)cc1 (stereo not drawn) [CBK047831]
Bulk resorufin, single well
  viability at 28.5 h, 10 µM: 91.2%

## Cc1cccc2sc(NC(=O)c3ccccc3)nc12 [CBK287300]
  viability at 28.5 h, 10 µM: 102%

## Cc1nc2c(oc3nc(-c4ccoc4)c4c(c32)CC(C)(C)OC4)c(-c2ccccc2)c1C(=O)O [CBK265286]
  viability at 28.5 h, 10 µM: 109%

## Cc1cccc(C2(Cn3cncc3-c3cnn(C)c3)CCOCC2)c1 [CBK281765]
  viability at 28.5 h, 10 µM: 79%

## Fc1ccc(-c2cn(-c3ccc(OCc4ccccc4)c(F)c3)nn2)cc1 [CBK113121]
  viability at 28.5 h, 10 µM: 99%

## CN(C)S(=O)(=O)CCNC(=O)c1ccc(-c2ccccc2CO)cc1 [CBK306773]
  viability at 28.5 h, 10 µM: 95.6%

## Cc1cc(C)c2nc(NC(=O)c3ccc(=O)n(CC(=O)N(C)c4ccccc4)c3)sc2c1 [CBK286025]
  viability at 28.5 h, 10 µM: 91.5%

## O=C(CCN1C(=O)c2cccc3cccc(c23)C1=O)Oc1ccc2c(c1)OCO2 [CBK266237]
  viability at 28.5 h, 10 µM: 106%

## CC(C)N(Cc1nc(-c2ccccc2)no1)C(=O)Nc1cccc(Cl)c1 [CBK269871]
  viability at 28.5 h, 10 µM: 93.5%

## CC(C(=O)Nc1ccc(S(N)(=O)=O)cc1)N(C)Cc1ccccc1F (stereo not drawn) [CBK305840]
  viability at 28.5 h, 10 µM: 105%

## C#CCOC(=O)Nc1cnc(N2CCOCC2)c(C(F)(F)F)c1 [CBK019679]
  viability at 28.5 h, 10 µM: 90.5%

## CC(C)(CNC(=O)c1ccc(=O)n(CC(=O)NC2CCCCC2)c1)c1ccc(F)cc1 [CBK285984]
  viability at 28.5 h, 10 µM: 83.9%

## Nc1nc(O)cc(C2CCN(CCOc3ccccc3F)C2)n1 (stereo not drawn) [CBK304726]
  viability at 28.5 h, 10 µM: 102%

## Cc1oc2ccc(NS(=O)(=O)c3ccccc3)cc2c1C(=O)O [CBK287071]
  viability at 28.5 h, 10 µM: 95.3%

## Cc1ccc(O)c(NC(=O)c2nc3nc(C)cc(C(F)F)n3n2)c1 [CBK266186]
  viability at 28.5 h, 10 µM: 99.6%

## Cc1c(S(=O)(=O)Nc2ccc3cn[nH]c3c2)cnn1-c1ccccc1 [CBK067149]
  viability at 28.5 h, 10 µM: 92.4%

## CC(N(C)CC(=O)NCc1ccc(OCC(N)=O)cc1)C(C)(C)C (stereo not drawn) [CBK306338]
  viability at 28.5 h, 10 µM: 99.2%

## CC(=O)OC1CCn2c1nc1cc(C(F)(F)F)ccc12 (stereo not drawn) [CBK115367]
  viability at 28.5 h, 10 µM: 75.1%

## COc1cccc2sc(Nc3nc4ccc(S(C)(=O)=O)cc4s3)nc12 [CBK287472]
  viability at 28.5 h, 10 µM: 104%

## COc1ccc(C(=O)N2CCN3C(=O)CCC32C)s1 (stereo not drawn) [CBK282058]
  viability at 28.5 h, 10 µM: 98.4%

## CCOc1nnc(CN(CCC(N)=O)c2ccc(F)cc2)s1 [CBK305536]
  viability at 28.5 h, 10 µM: 110%

## O=C(CCC(=O)c1ccc2c(c1)Cc1ccccc1-2)Nc1ccc(C(=O)O)cc1 [CBK268673]
  viability at 28.5 h, 10 µM: 110%

## Cc1ccccc1CCNC(=O)CCc1c(C)nc2nc(N)nn2c1C [CBK304994]
  viability at 28.5 h, 10 µM: 93.6%

## CN(C)CCN(C)C(=O)C1CCN(c2cncc(-c3ccc(O)cc3)n2)CC1 [CBK126928T]
  viability at 28.5 h, 10 µM: 88%

## OCC1CCCN1c1cncc(-c2ccc3c(c2)OCO3)n1 (stereo not drawn) [CBK065908]
  viability at 28.5 h, 10 µM: 100%

## Cc1csc2ncc(C(=O)Nc3cc(C(F)(F)F)ccc3Cl)c(=O)n12 [CBK287465]
  viability at 28.5 h, 10 µM: 94.4%

## CN(C)CCNC(=O)c1ccc(-c2cnc3[nH]c(=O)n(CC4CC4)c3n2)cc1 [CBK064578]
  viability at 28.5 h, 10 µM: 94.6%

## Cc1n[nH]c2nc(-c3cc(Br)ccc3O)cc(C(=O)O)c12 [CBK286834]
  viability at 28.5 h, 10 µM: 105%

## Cc1cc(C)nc(N/C(=N\C(=S)Nc2cccc(Cl)c2C)NCc2cccnc2)n1 [CBK267254]
  viability at 28.5 h, 10 µM: 93.5%

## O=[N+]([O-])c1ccc(S(=O)(=O)N2CCC3(CC2)OCCO3)cc1 [CBK269303]
  viability at 28.5 h, 10 µM: 97.5%

## Cc1cccc2c1[nH]c1nc(N/N=C\c3ccc(-c4cccc([N+](=O)[O-])c4)o3)nnc12 [CBK262373]
  viability at 28.5 h, 10 µM: 96%

## CCn1ncc(CN2C3CCC2CC(O)(c2cccc(F)c2)C3)c1C (stereo not drawn) [CBK282754]
  viability at 28.5 h, 10 µM: 91.6%

## COCCNC(=O)c1ccc(-c2ccccc2OC)nc1N(C)C [CBK106052]
  viability at 28.5 h, 10 µM: 92%

## COc1ccc(C(=O)c2c[nH]c3ccccc23)cc1 [CBK111451]
  viability at 28.5 h, 10 µM: 88.9%
